≈ marks a conversion by molar mass, not a printed value.
Each compound was assayed on Mycobacterium tuberculosis (assay: Antimycobacterial activity against Mycobacterium tuberculosis H37Ra).
Format: functional

Structure (SMILES) | MIC [µg/mL]
CNc1ccccc1C(=O)O[C@@H]1[C@@H](C)[C@]2(O)[C@@H]3C=C(C)C(=O)[C@@H]3[C@H](O)C(C)=C[C@H]2[C@@H]2C(C)(C)[C@]12OC(C)=O | > 200
CNc1ccccc1C(=O)O[C@@H]1[C@@H](C)[C@]2(O)[C@@H]3C=C(C)C(=O)[C@H]3CC(C)=C[C@H]2[C@@H]2C(C)(C)[C@]12OC(C)=O | 50 (≈ 98.5 µM)
CNc1ccccc1C(=O)O[C@@H]1[C@@H](C)[C@]2(O)[C@@H]3C=C(C)C(=O)[C@@H]3[C@H](O)C(CO)=C[C@H]2[C@@H]2C(C)(C)[C@]12OC(C)=O | 25 (≈ 46.3 µM)
CNc1ccccc1C(=O)O[C@@H]1[C@@H](C)[C@]2(O)[C@@H]3C=C(C)C(=O)[C@@H]3CC(C)=C[C@H]2[C@@H]2C(C)(C)[C@]12OC(C)=O | 200 (≈ 394 µM)
CNc1ccccc1C(=O)O[C@@H]1[C@@H](C)[C@]2(O)[C@@H]3C=C(C)C(=O)[C@@H]3CC(CO)=C[C@H]2[C@@H]2C(C)(C)[C@]12OC(C)=O | > 200
NNC(=O)c1ccncc1 [ISONIAZID] | 0.04 (≈ 0.292 µM)
NC[C@H]1O[C@H](O[C@H]2[C@H](O)[C@@H](O[C@H]3O[C@H](CO)[C@@H](O)[C@H](N)[C@H]3O)[C@H](N)C[C@@H]2N)[C@H](O)[C@@H](O)[C@@H]1O.O=S(=O)(O)O [KANAMYCIN SULFATE] | 2
CNc1ccccc1C(=O)O[C@@H]1[C@@H](C)[C@]2(O)[C@@H]3C=C(C)C(=O)[C@H]3CC(CO)=C[C@H]2[C@@H]2C(C)(C)[C@]12OC(C)=O [SAPINTOXIN A] | 3.12 (≈ 5.96 µM)
CNc1ccccc1C(=O)O[C@@H]1[C@@H](C)[C@]2(O)[C@@H]3C=C(C)C(=O)[C@H]3[C@H](O)C(CO)=C[C@H]2[C@@H]2C(C)(C)[C@]12OC(C)=O [SAPINTOXIN B] | 12.5 (≈ 23.2 µM)
CNc1ccccc1C(=O)O[C@@H]1[C@@H](C)[C@]2(O)[C@@H]3C=C(C)C(=O)[C@H]3[C@H](O)C(C)=C[C@H]2[C@@H]2C(C)(C)[C@]12OC(C)=O [SAPINTOXIN C] | 25 (≈ 47.7 µM)
